Measured values: patent US11098040B2, “Compounds and methods of use” (Ferro Therapeutics, Inc., priority 2018, dated 2021)
Read-outs that look alike come from different tables or passages of the source.

How the values were obtained:
[1] = tested on: A431; assay: Cell proliferation (Alamar Blue) assay, A431; type: cell-based; details: Homo sapiens, A-431; Cell Line A431
Protocol: Cells (SJSA-1, 786-O and A431) were seeded (5000 cells/100 μL/well) in 96-well tissue culture plate and incubated at 37° C./5% CO2 for 16-24 hours. The cells were then treated with compounds (25 μL of 5×). The compound concentrations were 10-0.0005 μM prepared in 3-fold serial dilutions with final DMSO concentration of 1%. The plates were then incubated for 24 h at 37° C./5% CO2 in a moist environment. Then Alamar Blue™ reagent (final concentration 1×-12.5 μL) was added to each well and incubated for 1.5 hours at 37° C./5% CO2. The plates were read on fluorescence reader at 540 nm excitation and 590 nm emission wavelengths. The IC50 values were subsequently determined using a sigmoidal dose-response curve (variable slope) in GraphPad Prism® 5 software.
The cell proliferation assays for the compounds shown Table 25 was performed according to the protocols described herein, including Examples 4 and 6.

[2] = tested on: SJSA-1; assay: Cell proliferation (Alamar Blue) assay, SJSA-1 osteosarcoma, with/without ferrostatin; type: cell-based, human; details: Homo sapiens
Method in brief: (§1)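 Cells seeded at 5000/well, 16-24 h, then exposed 24 h at 37° C to compound, 10-0.0005 μM in 3-fold dilutions, 1% DMSO final. Alamar Blue fluorescence (ex 540/em 590 nm) read after 1.5 h; IC50 from variable-slope sigmoidal fit.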

[3] = tested on: 786-O; assay: Cell proliferation (Alamar Blue) assay, 786-O renal cell carcinoma, with/without ferrostatin; type: cell-based; details: Homo sapiens
Method in brief: as §1

[4] = SJSA-1, Cell Line SJSA-1, read-out: IC50
[5] = 786-0, Cell Line 786-O, read-out: IC50
[6] = SJSA-1, 24 h, Alamar Blue, 24 h, 2 μM ferrostatin, read-out: SJSA-1 (IC50, μM) 2 μM Ferrostatin
[7] = SJSA-1, 24 h, Alamar Blue, 24 h, without ferrostatin, read-out: SJSA-1 (IC50, μM) Without Ferrostatin
[8] = 786-0, 24 h, Alamar Blue, 24 h, 2 μM ferrostatin, read-out: 786-O (IC50, μM) 2 μM Ferrostatin
[9] = 786-0, 24 h, Alamar Blue, 24 h, without ferrostatin, read-out: 786-O (IC50, μM) Without Ferrostatin

| SMILES | IC50 [1] | IC50 [2, 4] | IC50 [3, 5] | IC50 [2, 6] | IC50 [2, 7] | IC50 [3, 8] | IC50 [3, 9] |
| --- | --- | --- | --- | --- | --- | --- | --- |
| C[C@H]1Cc2c([nH]c3ccccc23)[C@@H](c2ccc(N3CCOCC3)cc2F)N1C(=O)CCl [Compound 129] | 4400 nM | 4.4 µM | 4.2 µM |  |  |  |  |
| C[C@H]1Cc2c([nH]c3ccccc23)[C@H](c2ccc(CN3CCOCC3)cc2)N1C(=O)CCl [Compound 132] | 6000 nM | 6.8 µM | 3.8 µM |  |  |  |  |
| C#CC(=O)N1[C@@H](CCCC)Cc2c([nH]c3ccc(F)cc23)[C@@H]1c1ccc(S(=O)(=O)NC2CCC2)cc1 [Compound 143, 4-((1S,3S)-3-butyl-6-fluoro-2-propioloyl-2,3,4,9-tetrahydro-1H-pyrido[3,4-b]indol-1-yl)-N-cyclobutylbenzenesulfonamide] | 2700 nM | 0.009 µM | 0.009 µM |  |  |  |  |
| C#CC(=O)N1[C@@H](COC)Cc2c([nH]c3ccccc23)[C@@H]1c1ccc(S(=O)(=O)NC2CC2)cc1F [Compound 144] | 3500 nM | 0.025 µM | 0.007 µM |  |  |  |  |
| CCCC[C@H]1Cc2c([nH]c3ccc(F)cc23)[C@H](c2ccc(S(=O)(=O)NC3CCC3)cc2)N1C(=O)CCl [Compound 145, 4-((1S,3S)-3-butyl-2-(2-chloroacetyl)-6-fluoro-2,3,4,9-tetrahydro-1H-pyrido[3,4-b]indol-1-yl)-N-cyclobutylbenzenesulfonamide] | 4600 nM | 0.004 µM | 0.003 µM |  |  |  |  |
| C#CC(=O)N1[C@@H](c2ccc(F)cc2)c2[nH]c3ccccc3c2C[C@@H]1C(=O)OC [Compound 146, methyl (1S,3R)-1-(4-fluorophenyl)-2-propioloyl-2,3,4,9-tetrahydro-1H-pyrido[3,4-b]indole-3-carboxylate] | 2400 nM | 0.03 µM | 0.023 µM |  |  |  |  |
| C#CCOc1ccc([C@H]2c3[nH]c4ccccc4c3C[C@H](C(=O)OC)N2C(=O)CCl)cc1 [Compound 147, methyl (1S,3R)-2-(2-chloroacetyl)-1-(4-(prop-2-yn-1-yloxy)phenyl)-2,3,4,9-tetrahydro-1H-pyrido[3,4-b]indole-3-carboxylate] | > 10000 nM | 0.159 µM | 0.049 µM |  |  |  |  |
| C#CC(=O)N1[C@@H](c2ccc(S(=O)(=O)NC3CC3)cc2F)c2[nH]c3ccc(Cl)cc3c2C[C@@H]1C [Compound 151] | 5220 nM | 0.037 µM | 0.018 µM |  |  |  |  |
| C[C@H]1Cc2c([nH]c3ccccc23)[C@@H](c2ccc(N3CCOCC3)nc2)N1C(=O)CCl [Compound 157] | 2000 nM | > 10 µM | > 10 µM |  |  |  |  |
| C[C@H]1Cc2c([nH]c3ccccc23)C(c2ccc(-n3ccnc3)cc2)N1C(=O)CCl (stereo partly drawn) [Compound 163, 1-((3S)-1-(4-(1H-imidazol-1-yl)phenyl)-3-methyl-1,3,4,9-tetrahydro-2H-pyrido[3,4-b]indol-2-yl)-2-chloroethan-1-one] | > 10000 nM | > 10 µM | 6.4 µM |  |  |  |  |
| C#CC(=O)N1[C@@H](c2ccc(S(=O)(=O)NC3CC3)cc2F)c2[nH]c3ccc(OC)cc3c2C[C@@H]1C [Compound 165, N-cyclopropyl-3-fluoro-4-((1S,3S)-6-methoxy-3-methyl-2-propioloyl-2,3,4,9-tetrahydro-1H-pyrido[3,4-b]indol-1-yl)benzenesulfonamide] | 3440 nM | 0.119 µM | 0.047 µM | 3.77 µM | 0.119 µM | 4.79 µM | 0.047 µM |
| COC[C@H]1Cc2c([nH]c3ccccc23)[C@H](c2ccc(C(=O)NC3CC3)cc2F)N1C(=O)CCl [Compound 166, 4-((1S,3R)-2-(2-chloroacetyl)-3-(methoxymethyl)-2,3,4,9-tetrahydro-1H-pyrido[3,4-b]indol-1-yl)-N-cyclopropyl-3-fluorobenzamide] | > 10000 nM | 0.01 µM | 0.008 µM | > 10 µM | 0.01 µM | 9.52 µM | 0.008 µM |
| C#CC(=O)N1[C@@H](CCCC)Cc2c([nH]c3ccccc23)[C@@H]1c1ccc(S(=O)(=O)NC2CC2)cc1F [Compound 167, 4-((1S,3S)-3-butyl-2-propioloyl-2,3,4,9-tetrahydro-1H-pyrido[3,4-b]indol-1-yl)-N-cyclopropyl-3-fluorobenzenesulfonamide] | 1930 nM | 0.011 µM | 0.005 µM | 4.01 µM | 0.011 µM | 2 µM | 0.005 µM |
| C[C@H]1Cc2c([nH]c3ccccc23)[C@H](c2ccc3c(c2)CNC3=O)N1C(=O)CCl [Compound 168, 5-((1S,3S)-2-(2-chloroacetyl)-3-methyl-2,3,4,9-tetrahydro-1H-pyrido[3,4-b]indol-1-yl)isoindolin-1-one] | 5090 nM | 0.56 µM | 0.487 µM | > 10 µM | 0.56 µM | 3.31 µM | 0.487 µM |
| C[C@H]1Cc2c([nH]c3ccccc23)[C@H](c2ccc(S(=O)(=O)N(C)C3CC3)cc2F)N1C(=O)CCl [Compound 170] | 4190 nM | 0.062 µM | 0.058 µM | 9.11 µM | 0.062 µM | 8.09 µM | 0.058 µM |
| C[C@H]1Cc2c([nH]c3ccc(Cl)cc23)[C@H](c2ccc(S(=O)(=O)NC3CC3)cc2F)N1C(=O)CCl [Compound 172, 4-((1S,3S)-6-chloro-2-(2-chloroacetyl)-3-methyl-2,3,4,9-tetrahydro-1H-pyrido[3,4-b]indol-1-yl)-N-cyclopropyl-3-fluorobenzenesulfonamide] | 2110 nM | 0.023 µM | 0.023 µM | 4.1 µM | 0.023 µM | 6.76 µM | 0.023 µM |
| COc1ccc2[nH]c3c(c2c1)C[C@H](C)N(C(=O)CCl)[C@H]3c1ccc(S(=O)(=O)NC2CC2)cc1F [Compound 173, 4-((3S)-2-(2-chloroacetyl)-6-methoxy-3-methyl-2,3,4,9-tetrahydro-1H-pyrido[3,4-b]indol-1-yl)-N-cyclopropyl-3-fluorobenzenesulfonamide] | 3670 nM | 0.034 µM | 0.023 µM | 3.98 µM | 0.034 µM | 3.95 µM | 0.023 µM |
| C[C@H]1Cc2c([nH]c3ccccc23)[C@H](c2ccc(N3CCS(=O)(=O)CC3)cc2)N1C(=O)CCl [Compound 210, 2-chloro-1-((1S,3S)-1-(4-(1,1-dioxidothiomorpholino)phenyl)-3-methyl-1,3,4,9-tetrahydro-2H-pyrido[3,4-b]indol-2-yl)ethan-1-one] | 1550 nM | 0.081 µM | 0.062 µM | 9.55 µM | 0.081 µM | > 10 µM | 0.062 µM |
| C[C@H]1Cc2c([nH]c3ccccc23)[C@H](c2ccc(N3CC4(COC4)C3)cc2)N1C(=O)CCl [Compound 213, 1-((1S,3S)-1-(4-(2-oxa-6-azaspiro[3.3]heptan-6-yl)phenyl)-3-methyl-1,3,4,9-tetrahydro-2H-pyrido[3,4-b]indol-2-yl)-2-chloroethan-1-one] | 1850 nM | 0.066 µM | 0.066 µM | 4.79 µM | 0.066 µM | 5.62 µM | 0.066 µM |
